ChEMBL document CHEMBL1134903, “Synthesis and SAR of azalide 3,6-ketal aromatic derivatives as potent Gram-positive and Gram-negative antibacterial agents” (Bioorg Med Chem Lett, 2002)
In brackets after ≈: the same amount, converted by molar mass.

Tests used:
Assay type in all cases: functional
Escherichia coli = assay: Minimum inhibitory concentration against Escherichia coli
Pasteurella multocida = assay: Minimum inhibitory concentration against Pasteurella multocida
Staphylococcus aureus [1] = assay: Effective dose required to inhibit Staphylococcus aureus intraperitoneal (IP) infection model
Staphylococcus aureus [2] = assay: Minimum inhibitory concentration against Staphylococcus aureus
Staphylococcus aureus [3] = assay: Colony forming units of Staphylococcus aureus intramammary infection (IMI) model was determined at a dose of 15 mg/kg

Compound	MIC (Escherichia coli)	MIC (Pasteurella multocida)	ED50 (Staphylococcus aureus [1])	MIC (Staphylococcus aureus [2])	MIC (Staphylococcus aureus [1])	Log CFU (Staphylococcus aureus [3])
CC[C@H]1OC(=O)[C@H](C)[C@H]2OC3(CCN(C(=O)c4c[nH]c5ccccc45)CC3)O[C@](C)(C[C@@H](C)CN[C@H](C)[C@@H](O)[C@]1(C)O)[C@H](O[C@@H]1O[C@H](C)C[C@H](N(C)C)[C@H]1O)[C@H]2C	6.25 µg/mL (≈ 7.8 µM)	0.1 µg/mL (≈ 0.125 µM)	11 mg/kg	0.39 µg/mL (≈ 0.487 µM)		
CC[C@H]1OC(=O)[C@H](C)[C@H]2OC3(CCN(C(=O)c4cc5ccccc5[nH]4)CC3)O[C@](C)(C[C@@H](C)CN[C@H](C)[C@@H](O)[C@]1(C)O)[C@H](O[C@@H]1O[C@H](C)C[C@H](N(C)C)[C@H]1O)[C@H]2C	3.13 µg/mL (≈ 3.91 µM)	0.1 µg/mL (≈ 0.125 µM)	> 20 mg/kg	0.78 µg/mL (≈ 0.974 µM)		
CC[C@H]1OC(=O)[C@H](C)[C@H]2OC3(CCN(C(=O)c4cnc5ccccc5c4)CC3)O[C@](C)(C[C@@H](C)CN(C)[C@H](C)[C@@H](O)[C@]1(C)O)[C@H](O[C@@H]1O[C@H](C)C[C@H](N(C)C)[C@H]1O)[C@H]2C	6.25 µg/mL (≈ 7.56 µM)	0.1 µg/mL (≈ 0.121 µM)	> 20 mg/kg	0.39 µg/mL (≈ 0.472 µM)		
CC[C@H]1OC(=O)[C@H](C)[C@H]2OC3(CCN(Cc4ccc(-c5ccccc5)cc4)CC3)O[C@](C)(C[C@@H](C)CN(C)[C@H](C)[C@@H](O)[C@]1(C)O)[C@H](O[C@@H]1O[C@H](C)C[C@H](N(C)C)[C@H]1O)[C@H]2C	1.56 µg/mL (≈ 1.86 µM)	0.1 µg/mL (≈ 0.119 µM)	> 20 mg/kg	0.2 µg/mL (≈ 0.239 µM)		
CC[C@H]1OC(=O)[C@H](C)[C@H]2OC3(CCN(C(=O)c4cncc(Cl)c4Cl)CC3)O[C@](C)(C[C@@H](C)CN[C@H](C)[C@@H](O)[C@]1(C)O)[C@H](O[C@@H]1O[C@H](C)C[C@H](N(C)C)[C@H]1O)[C@H]2C	3.13 µg/mL (≈ 3.76 µM)	0.1 µg/mL (≈ 0.12 µM)	> 20 mg/kg	3.13 µg/mL (≈ 3.76 µM)		
CC[C@H]1OC(=O)[C@H](C)[C@H]2OC3(CCN(C(=O)c4occc4C)CC3)O[C@](C)(C[C@@H](C)CN[C@H](C)[C@@H](O)[C@]1(C)O)[C@H](O[C@@H]1O[C@H](C)C[C@H](N(C)C)[C@H]1O)[C@H]2C	1.56 µg/mL (≈ 2.04 µM)	0.1 µg/mL (≈ 0.131 µM)	> 20 mg/kg	0.78 µg/mL (≈ 1.02 µM)		
CC[C@H]1OC(=O)[C@H](C)[C@H]2OC3(CCN(CCc4ccc(C#N)cc4)CC3)O[C@](C)(C[C@@H](C)CN(C)[C@H](C)[C@@H](O)[C@]1(C)O)[C@H](O[C@@H]1O[C@H](C)C[C@H](N(C)C)[C@H]1O)[C@H]2C	0.39 µg/mL (≈ 0.487 µM)	0.03 µg/mL (≈ 0.0374 µM)	22 mg/kg	0.78 µg/mL (≈ 0.974 µM)		
CC[C@H]1OC(=O)[C@H](C)[C@H]2OC3(CCN(CCc4ccoc4)CC3)O[C@](C)(C[C@@H](C)CN(C)[C@H](C)[C@@H](O)[C@]1(C)O)[C@H](O[C@@H]1O[C@H](C)C[C@H](N(C)C)[C@H]1O)[C@H]2C	0.2 µg/mL (≈ 0.261 µM)	0.03 µg/mL (≈ 0.0392 µM)				
CC[C@H]1OC(=O)[C@H](C)[C@H]2OC3(CCN(CCc4cccc(OC)c4)CC3)O[C@](C)(C[C@@H](C)CN(C)[C@H](C)[C@@H](O)[C@]1(C)O)[C@H](O[C@@H]1O[C@H](C)C[C@H](N(C)C)[C@H]1O)[C@H]2C	0.2 µg/mL (≈ 0.248 µM)	0.03 µg/mL (≈ 0.0372 µM)	> 20 mg/kg	0.6 µg/mL (≈ 0.744 µM)		
CC[C@H]1OC(=O)[C@H](C)[C@H]2OC3(CCN(CCc4ccnc5ccccc45)CC3)O[C@](C)(C[C@@H](C)CN(C)[C@H](C)[C@@H](O)[C@]1(C)O)[C@H](O[C@@H]1O[C@H](C)C[C@H](N(C)C)[C@H]1O)[C@H]2C	1.56 µg/mL (≈ 1.89 µM)	0.05 µg/mL (≈ 0.0605 µM)	> 20 mg/kg	0.39 µg/mL (≈ 0.472 µM)		
CC[C@H]1OC(=O)[C@H](C)[C@H]2OC3(CCN(C(=O)c4cccs4)CC3)O[C@](C)(C[C@@H](C)CN(C)[C@H](C)[C@@H](O)[C@]1(C)O)[C@H](O[C@@H]1O[C@H](C)C[C@H](N(C)C)[C@H]1O)[C@H]2C	1.56 µg/mL (≈ 1.99 µM)	0.05 µg/mL (≈ 0.0639 µM)			> 20 µg/mL	
CC[C@H]1OC(=O)[C@H](C)[C@H]2OC3(CCN(C(=O)c4ccc(-c5ccccc5)cc4)CC3)O[C@](C)(C[C@@H](C)CN[C@H](C)[C@@H](O)[C@]1(C)O)[C@H](O[C@@H]1O[C@H](C)C[C@H](N(C)C)[C@H]1O)[C@H]2C	6.25 µg/mL (≈ 7.46 µM)	0.2 µg/mL (≈ 0.239 µM)		0.78 µg/mL (≈ 0.931 µM)		
CC[C@H]1OC(=O)[C@H](C)[C@H]2OC3(CCN(CCc4ccc(Cl)c(Cl)c4)CC3)O[C@](C)(C[C@@H](C)CN[C@H](C)[C@@H](O)[C@]1(C)O)[C@H](O[C@@H]1O[C@H](C)C[C@H](N(C)C)[C@H]1O)[C@H]2C	3.13 µg/mL (≈ 3.77 µM)	0.05 µg/mL (≈ 0.0602 µM)		0.39 µg/mL (≈ 0.469 µM)		
CC[C@H]1OC(=O)[C@H](C)[C@H]2OC3(CCN(Cc4ccncc4)CC3)O[C@](C)(C[C@@H](C)CN[C@H](C)[C@@H](O)[C@]1(C)O)[C@H](O[C@@H]1O[C@H](C)C[C@H](N(C)C)[C@H]1O)[C@H]2C	0.78 µg/mL (≈ 1.04 µM)	0.03 µg/mL (≈ 0.0401 µM)	6.4 mg/kg	1.56 µg/mL (≈ 2.08 µM)		
CC[C@H]1OC(=O)[C@H](C)[C@H]2OC3(CCN(CCc4ccc(OC)cc4)CC3)O[C@](C)(C[C@@H](C)CN[C@H](C)[C@@H](O)[C@]1(C)O)[C@H](O[C@@H]1O[C@H](C)C[C@H](N(C)C)[C@H]1O)[C@H]2C	0.2 µg/mL (≈ 0.253 µM)	0.01 µg/mL (≈ 0.0126 µM)		0.2 µg/mL (≈ 0.253 µM)		
CC[C@H]1OC(=O)[C@H](C)[C@H]2OC3(CCN(C(=O)c4ccccc4)CC3)O[C@](C)(C[C@@H](C)CN(C)[C@H](C)[C@@H](O)[C@]1(C)O)[C@H](O[C@@H]1O[C@H](C)C[C@H](N(C)C)[C@H]1O)[C@H]2C	3.13 µg/mL (≈ 4.03 µM)	0.1 µg/mL (≈ 0.129 µM)				
CC[C@H]1OC(=O)[C@H](C)[C@H]2OC3(CCN(Cc4cccnc4)CC3)O[C@](C)(C[C@@H](C)CN(C)[C@H](C)[C@@H](O)[C@]1(C)O)[C@H](O[C@@H]1O[C@H](C)C[C@H](N(C)C)[C@H]1O)[C@H]2C	0.39 µg/mL (≈ 0.511 µM)	0.03 µg/mL (≈ 0.0393 µM)	> 20 mg/kg	0.78 µg/mL (≈ 1.02 µM)		
CC[C@H]1OC(=O)[C@H](C)[C@H]2OC3(CCN(CCc4ccc(Cl)c(Cl)c4)CC3)O[C@](C)(C[C@@H](C)CN(C)[C@H](C)[C@@H](O)[C@]1(C)O)[C@H](O[C@@H]1O[C@H](C)C[C@H](N(C)C)[C@H]1O)[C@H]2C	50 µg/mL (≈ 59.2 µM)	0.05 µg/mL (≈ 0.0592 µM)		0.2 µg/mL (≈ 0.237 µM)		
CC[C@H]1OC(=O)[C@H](C)[C@H]2OC3(CCN(CCc4ccccc4OC)CC3)O[C@](C)(C[C@@H](C)CN(C)[C@H](C)[C@@H](O)[C@]1(C)O)[C@H](O[C@@H]1O[C@H](C)C[C@H](N(C)C)[C@H]1O)[C@H]2C	0.1 µg/mL (≈ 0.124 µM)	0.03 µg/mL (≈ 0.0372 µM)	> 20 mg/kg	0.39 µg/mL (≈ 0.484 µM)		
CC[C@H]1OC(=O)[C@H](C)[C@H]2OC3(CCN(CCc4ccc5ccccc5n4)CC3)O[C@](C)(C[C@@H](C)CN(C)[C@H](C)[C@@H](O)[C@]1(C)O)[C@H](O[C@@H]1O[C@H](C)C[C@H](N(C)C)[C@H]1O)[C@H]2C	0.78 µg/mL (≈ 0.943 µM)	0.03 µg/mL (≈ 0.0363 µM)	> 20 mg/kg	0.39 µg/mL (≈ 0.472 µM)		
CC[C@H]1OC(=O)[C@H](C)[C@H]2OC3(CCN(CCc4ccccc4)CC3)O[C@](C)(C[C@@H](C)CN[C@H](C)[C@@H](O)[C@]1(C)O)[C@H](O[C@@H]1O[C@H](C)C[C@H](N(C)C)[C@H]1O)[C@H]2C	0.1 µg/mL (≈ 0.131 µM)	0.03 µg/mL (≈ 0.0394 µM)	> 20 mg/kg	0.39 µg/mL (≈ 0.512 µM)		
CC[C@H]1OC(=O)[C@H](C)[C@H]2OC3(CCN(CCc4ccc(Cl)cc4)CC3)O[C@](C)(C[C@@H](C)CN[C@H](C)[C@@H](O)[C@]1(C)O)[C@H](O[C@@H]1O[C@H](C)C[C@H](N(C)C)[C@H]1O)[C@H]2C	0.2 µg/mL (≈ 0.251 µM)	0.01 µg/mL (≈ 0.0126 µM)				
CC[C@H]1OC(=O)[C@H](C)[C@H]2OC3(CCN(CCc4ccccc4OC)CC3)O[C@](C)(C[C@@H](C)CN[C@H](C)[C@@H](O)[C@]1(C)O)[C@H](O[C@@H]1O[C@H](C)C[C@H](N(C)C)[C@H]1O)[C@H]2C	0.1 µg/mL (≈ 0.126 µM)	0.03 µg/mL (≈ 0.0379 µM)		0.39 µg/mL (≈ 0.492 µM)		
CC[C@H]1OC(=O)[C@H](C)[C@H]2OC3(CCN(CCc4ccnc5ccccc45)CC3)O[C@](C)(C[C@@H](C)CN[C@H](C)[C@@H](O)[C@]1(C)O)[C@H](O[C@@H]1O[C@H](C)C[C@H](N(C)C)[C@H]1O)[C@H]2C	1.56 µg/mL (≈ 1.92 µM)	0.05 µg/mL (≈ 0.0615 µM)	> 20 mg/kg	0.2 µg/mL (≈ 0.246 µM)		
CC[C@H]1OC(=O)[C@H](C)[C@H]2OC3(CCN(C(=O)c4ccco4)CC3)O[C@](C)(C[C@@H](C)CN(C)[C@H](C)[C@@H](O)[C@]1(C)O)[C@H](O[C@@H]1O[C@H](C)C[C@H](N(C)C)[C@H]1O)[C@H]2C	0.78 µg/mL (≈ 1.02 µM)	0.05 µg/mL (≈ 0.0653 µM)	> 20 mg/kg			3.3
CC[C@H]1OC(=O)[C@H](C)[C@H]2OC3(CCNCC3)O[C@](C)(C[C@@H](C)CN(C)[C@H](C)[C@@H](O)[C@]1(C)O)[C@H](O[C@@H]1O[C@H](C)C[C@H](N(C)C)[C@H]1O)[C@H]2C	0.2 µg/mL (≈ 0.298 µM)	0.05 µg/mL (≈ 0.0744 µM)		6.25 µg/mL (≈ 9.3 µM)		
CC[C@H]1OC(=O)[C@H](C)[C@H]2OC3(CCN(CCc4cccc(OC)c4)CC3)O[C@](C)(C[C@@H](C)CN[C@H](C)[C@@H](O)[C@]1(C)O)[C@H](O[C@@H]1O[C@H](C)C[C@H](N(C)C)[C@H]1O)[C@H]2C	0.3 µg/mL (≈ 0.379 µM)	0.03 µg/mL (≈ 0.0379 µM)		0.39 µg/mL (≈ 0.492 µM)		
